Entries after “also recorded” stand apart in the source; their conditions may differ.
What was measured:
Colo-205 colon carcinoma = tested on: Colo-205 colon carcinoma; design: method as in printed; details: Colo-205 colon carcinoma model; background statement, ref not given; cited from earlier work
[1] = Phase I dose escalation: study drug-related adverse events (NCI CTC v2.0), DLT, MTD; format: in vivo
Experimental: Administration of telatinib was continued until an unacceptable toxicity, disease progression or death occurred or the consent was withdrawn. At start of the study, only a solution formulation was available. The formulation as tablet was introduced into the study after first pharmacokinetic results became available. Based on pharmacokinetic data, OD, two times daily (BID), and three times daily schedules were evaluated.
Three patients were initially enroled at each dose level. […] If any patient experienced a DLT, three additional patients were enroled at that dose level. If at least two out of six patients experienced a DLT, dose escalation had to be stopped and that dose was to be declared the toxic dose. The next lower dose level was defined as the MTD. […] In the course of the study the protocol was amended so that the onset of CTC grade 3 hypertension was only considered to be a DLT if the hypertension turned out to be refractory to standard antihypertensive treatment.
Adverse events were assessed at the end of each cycle and graded according to the National Cancer Institute Common Toxicity Criteria (NCI CTC), v2.0 ([Trotti et al, 2000]).
History, physical examinations, haematological and biochemical laboratory evaluations were performed at screening, on days 1, 7 and 14 of cycle 1 and on day 1 of subsequent cycles. Baseline objective tumour measurements were performed within 4 weeks prior to study treatment. Lesions at all disease sites were categorised as either measurable or nonmeasurable. Indicator lesions were selected and monitored throughout the study by the same assessor and using the same technique. Tumour response was evaluated according to the RECIST ([Therasse et al, 2000]).

[2] = continuous dosing 600 mg BID (N=7)
[3] = continuous dosing 900 mg BID (N=6)
[4] = continuous dosing 1200 mg BID (N=7)
[5] = continuous dosing 1500 mg BID (N=6)

CNC(=O)c1cc(COc2nnc(Nc3ccc(Cl)cc3)c3ccoc23)ccn1 [telatinib]
tumour growth in vivo (Colo-205 colon carcinoma): potent, dose-dependent reduction in tumour growth | Patients with hypertension resulting in dose reduction and dose interruption ([1]; 300 mg BID, 1500 mg BID noncontinuous and 1200 mg BID continuous dosing): three | Patients with dose-limiting toxicities ([1]; 1500 mg BID continuous dosing, first 21 days of treatment): no patient out of six patients; also recorded: none of the six patients | Patients with dose-limiting toxicities ([1]; 1500 mg BID noncontinuous dosing, grade 3 hypertension refractory to standard treatment): one out of six patients | Incidence of patients with study drug-related adverse events, worst CTC grade 3: Abdominal pain or cramping ([1]; Total, all patients N=71): 2 (3) N(%) | Incidence of patients with study drug-related adverse events, worst CTC grade 3: Any event ([1]; Total, all patients N=71): 18 (25) N(%) | Incidence of patients with study drug-related adverse events, worst CTC grade 3: Dehydration ([1]; Total, all patients N=71): 1 (1) N(%) | Incidence of patients with study drug-related adverse events, worst CTC grade 3: Diarrhoea, patients with colostomy ([1]; Total, all patients N=71): 1 (1) N(%) | Incidence of patients with study drug-related adverse events, worst CTC grade 3: Diarrhoea, patients without colostomy ([1]; Total, all patients N=71): 4 (6) N(%) | Incidence of patients with study drug-related adverse events, worst CTC grade 3: Hand–foot skin reaction ([1]; Total, all patients N=71): 1 (1) N(%) | Incidence of patients with study drug-related adverse events, worst CTC grade 3: Hypertension ([1]; Total, all patients N=71): 16 (23) N(%) | Incidence of patients with study drug-related adverse events, worst CTC grade 3: Rash/desquamation ([1]; Total, all patients N=71): 1 (1) N(%) | Incidence of patients with study drug-related adverse events, worst CTC grades 1–2: Alopecia ([1]; Total, all patients N=71): 2 (3) N(%) | Incidence of patients with study drug-related adverse events, worst CTC grades 1–2: Anorexia ([1]; Total, all patients N=71): 5 (7) N(%) | Incidence of patients with study drug-related adverse events, worst CTC grades 1–2: Any event ([1]; Total, all patients N=71): 15 (21) N(%) | Incidence of patients with study drug-related adverse events, worst CTC grades 1–2: Diarrhoea, patients without colostomy ([1]; Total, all patients N=71): 4 (6) N(%) | Incidence of patients with study drug-related adverse events, worst CTC grades 1–2: Fatigue ([1]; Total, all patients N=71): 2 (3) N(%) | Incidence of patients with study drug-related adverse events, worst CTC grades 1–2: Flatulence ([1]; Total, all patients N=71): 2 (3) N(%) | Incidence of patients with study drug-related adverse events, worst CTC grades 1–2: Hypertension ([1]; Total, all patients N=71): 3 (4) N(%) | Incidence of patients with study drug-related adverse events, worst CTC grades 1–2: Nausea ([1]; Total, all patients N=71): 3 (4) N(%) | Incidence of patients with study drug-related adverse events, worst CTC grades 1–2: Voice changes/stridor/larynx ([1]; Total, all patients N=71): 5 (7) N(%) | Incidence of patients with study drug-related adverse events, worst CTC grades 1–2: Vomiting ([1]; Total, all patients N=71): 2 (3) N(%) | Patients dose reduced or discontinued permanently due to drug-related adverse events ([1]; all patients): nine out of 71 | Hypertension, study drug-related, CTC grade 3 ([1]; all patients N=71): 23% | Hypertension, study drug-related, worst CTC grade 1–2 ([1]; all patients N=71): 4% | Patients with at least one study drug-related adverse event, worst CTC grade 1–2 ([1]; all patients N=71): 21% | Patients with at least one study drug-related adverse event, worst CTC grade 3 ([1]; all patients N=71): 25% | Study drug-related adverse events of CTC grades 4 or 5 ([1]; all patients N=71): no study drug-related adverse events of CTC grades 4 or 5 | Diarrhoea, study drug-related, CTC grade 3 ([1]; all patients N=71 (with and without colostomy)): 7% | Patients with serious study drug-related adverse events ([1]; all patients, diarrhoea, hypertension, hand–foot skin reaction and dehydration): five | Incidence of patients with study drug-related adverse events, worst CTC grades 1–2: Any event [1, 2]: 1 (14) N(%) | Incidence of patients with study drug-related adverse events, worst CTC grades 1–2: Diarrhoea, patients without colostomy [1, 2]: 1 (14) N(%) | Incidence of patients with study drug-related adverse events, worst CTC grade 3: Any event [1, 3]: 3 (50) N(%) | Incidence of patients with study drug-related adverse events, worst CTC grade 3: Dehydration [1, 3]: 1 (17) N(%) | Incidence of patients with study drug-related adverse events, worst CTC grade 3: Diarrhoea, patients with colostomy [1, 3]: 1 (17) N(%) | Incidence of patients with study drug-related adverse events, worst CTC grade 3: Diarrhoea, patients without colostomy [1, 3]: 1 (17) N(%) | Incidence of patients with study drug-related adverse events, worst CTC grade 3: Hand–foot skin reaction [1, 3]: 1 (17) N(%) | Incidence of patients with study drug-related adverse events, worst CTC grade 3: Hypertension [1, 3]: 2 (33) N(%) | Incidence of patients with study drug-related adverse events, worst CTC grade 3: Rash/desquamation [1, 3]: 1 (17) N(%) | Incidence of patients with study drug-related adverse events, worst CTC grades 1–2: Alopecia [1, 3]: 1 (17) N(%) | Incidence of patients with study drug-related adverse events, worst CTC grades 1–2: Any event [1, 3]: 2 (33) N(%) | Incidence of patients with study drug-related adverse events, worst CTC grades 1–2: Nausea [1, 3]: 1 (17) N(%) | Incidence of patients with study drug-related adverse events, worst CTC grades 1–2: Voice changes/stridor/larynx [1, 3]: 1 (17) N(%) | Incidence of patients with study drug-related adverse events, worst CTC grade 3: Abdominal pain or cramping [1, 4]: 1 (14) N(%) | Incidence of patients with study drug-related adverse events, worst CTC grade 3: Any event [1, 4]: 5 (71) N(%) | Incidence of patients with study drug-related adverse events, worst CTC grade 3: Diarrhoea, patients without colostomy [1, 4]: 2 (29) N(%) | Incidence of patients with study drug-related adverse events, worst CTC grade 3: Hypertension [1, 4]: 5 (71) N(%) | Incidence of patients with study drug-related adverse events, worst CTC grades 1–2: Any event [1, 4]: 1 (14) N(%) | Incidence of patients with study drug-related adverse events, worst CTC grades 1–2: Flatulence [1, 4]: 1 (14) N(%) | Incidence of patients with study drug-related adverse events, worst CTC grades 1–2: Any event [1, 5]: 2 (33) N(%) | Incidence of patients with study drug-related adverse events, worst CTC grades 1–2: Diarrhoea, patients without colostomy [1, 5]: 2 (33) N(%) | Incidence of patients with study drug-related adverse events, worst CTC grades 1–2: Flatulence [1, 5]: 1 (17) N(%) | Incidence of patients with study drug-related adverse events, worst CTC grades 1–2: Hypertension [1, 5]: 1 (17) N(%) | Incidence of patients with study drug-related adverse events, worst CTC grades 1–2: Nausea [1, 5]: 1 (17) N(%) | Incidence of patients with study drug-related adverse events, worst CTC grades 1–2: Vomiting [1, 5]: 1 (17) N(%) | Maximum-tolerated dose (MTD) ([1]; continuous dosing, MTD not reached up to highest dose): > 1500 mg BID | diastolic blood pressure, change from baseline ([1]; cycle 1, day 14 vs baseline): increase | Patients with diarrhoea leading to dose reduction or interruption ([1]; dose levels of 900 mg BID or higher): four | Patients with dose-limiting toxicities ([1]; grade 3 hypertension refractory to standard treatment, at 300 and 1500 mg BID noncontinuous dosing): two | Maximum-tolerated dose (MTD) ([1]; human, in vivo): > 1500 mg BID | Incidence of patients with study drug-related adverse events, worst CTC grade 3: Any event ([1]; noncontinuous dosing 600 mg BID (N=6)): 3 (50) N(%)

— publication PMC2584942, “Phase I dose escalation study of telatinib (BAY 57-9352) in patients with advanced solid tumours” (British Journal of Cancer, 2008)
